pIC50: −log10 of the molar value.
Legend:
[1] = target: T1, 3-phosphoinositide-dependent protein kinase 1 (Homo sapiens, UniProt O15530); assay: Inhibition of PDK1
T1 sequence (O15530 whole entry): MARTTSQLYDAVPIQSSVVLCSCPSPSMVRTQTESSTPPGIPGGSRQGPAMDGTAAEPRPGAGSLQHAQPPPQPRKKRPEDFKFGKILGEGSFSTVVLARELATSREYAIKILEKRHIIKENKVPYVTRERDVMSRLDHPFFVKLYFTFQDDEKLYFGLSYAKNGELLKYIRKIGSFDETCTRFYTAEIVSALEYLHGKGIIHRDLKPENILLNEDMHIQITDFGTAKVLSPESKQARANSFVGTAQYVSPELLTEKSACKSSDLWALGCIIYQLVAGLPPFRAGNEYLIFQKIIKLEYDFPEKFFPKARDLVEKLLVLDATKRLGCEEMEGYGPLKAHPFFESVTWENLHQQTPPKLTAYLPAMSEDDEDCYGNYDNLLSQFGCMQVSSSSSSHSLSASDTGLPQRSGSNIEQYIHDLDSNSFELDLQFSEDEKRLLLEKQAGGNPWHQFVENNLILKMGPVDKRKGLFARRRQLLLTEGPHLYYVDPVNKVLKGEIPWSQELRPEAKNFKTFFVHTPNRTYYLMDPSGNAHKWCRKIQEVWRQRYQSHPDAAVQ

Aurora kinase A = target: T2, Aurora kinase A (Homo sapiens, UniProt O14965); assay: Inhibition of aurora A
T2 sequence (O14965 whole entry): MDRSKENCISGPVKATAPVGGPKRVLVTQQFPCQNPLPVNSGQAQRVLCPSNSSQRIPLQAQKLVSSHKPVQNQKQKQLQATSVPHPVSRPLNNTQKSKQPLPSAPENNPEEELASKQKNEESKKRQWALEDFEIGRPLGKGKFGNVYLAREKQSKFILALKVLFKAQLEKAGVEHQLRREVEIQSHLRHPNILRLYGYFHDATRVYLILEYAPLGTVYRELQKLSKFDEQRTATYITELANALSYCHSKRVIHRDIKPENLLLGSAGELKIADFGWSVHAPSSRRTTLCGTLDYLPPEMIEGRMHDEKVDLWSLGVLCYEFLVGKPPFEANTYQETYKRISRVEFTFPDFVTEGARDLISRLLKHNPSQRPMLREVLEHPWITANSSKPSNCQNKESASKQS

Aurora kinase B = Aurora kinase B (Homo sapiens, UniProt Q96GD4); assay: Inhibition of aurora B
Chain of Aurora kinase B (Q96GD4 whole entry): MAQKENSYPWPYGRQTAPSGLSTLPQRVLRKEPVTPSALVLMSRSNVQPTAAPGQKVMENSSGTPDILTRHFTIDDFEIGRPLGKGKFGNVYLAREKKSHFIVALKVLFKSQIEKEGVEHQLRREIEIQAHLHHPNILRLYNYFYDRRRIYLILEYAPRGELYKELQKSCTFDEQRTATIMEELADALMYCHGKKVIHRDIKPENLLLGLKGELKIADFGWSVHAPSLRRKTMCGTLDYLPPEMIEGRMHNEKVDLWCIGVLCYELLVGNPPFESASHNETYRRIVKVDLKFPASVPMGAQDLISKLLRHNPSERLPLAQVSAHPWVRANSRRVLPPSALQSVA

TGF-beta receptor type-1 = target: T3, TGF-beta receptor type-1 (Homo sapiens, UniProt P36897); assay: Inhibition of ALK5; details: read-out: pIC50 (converted)
T3 sequence (P36897 whole entry): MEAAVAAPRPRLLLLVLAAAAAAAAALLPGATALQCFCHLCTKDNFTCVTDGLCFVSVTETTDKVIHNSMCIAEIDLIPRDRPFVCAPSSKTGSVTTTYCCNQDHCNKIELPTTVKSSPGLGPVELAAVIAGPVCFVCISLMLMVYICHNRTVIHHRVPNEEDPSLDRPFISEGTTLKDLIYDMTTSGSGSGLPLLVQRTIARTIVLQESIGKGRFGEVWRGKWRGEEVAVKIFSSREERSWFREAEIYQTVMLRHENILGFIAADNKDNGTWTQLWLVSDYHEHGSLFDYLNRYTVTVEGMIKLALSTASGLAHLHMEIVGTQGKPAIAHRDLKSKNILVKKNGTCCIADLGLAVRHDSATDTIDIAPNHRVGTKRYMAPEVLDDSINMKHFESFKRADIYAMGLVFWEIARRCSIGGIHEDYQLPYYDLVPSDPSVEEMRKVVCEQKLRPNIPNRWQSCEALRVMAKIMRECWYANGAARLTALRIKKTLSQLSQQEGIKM

[2] = target: Rho-associated protein kinase 1 (Homo sapiens, UniProt Q13464); assay: Inhibition of ROCK1
Chain of Rho-associated protein kinase 1 (Q13464 whole entry): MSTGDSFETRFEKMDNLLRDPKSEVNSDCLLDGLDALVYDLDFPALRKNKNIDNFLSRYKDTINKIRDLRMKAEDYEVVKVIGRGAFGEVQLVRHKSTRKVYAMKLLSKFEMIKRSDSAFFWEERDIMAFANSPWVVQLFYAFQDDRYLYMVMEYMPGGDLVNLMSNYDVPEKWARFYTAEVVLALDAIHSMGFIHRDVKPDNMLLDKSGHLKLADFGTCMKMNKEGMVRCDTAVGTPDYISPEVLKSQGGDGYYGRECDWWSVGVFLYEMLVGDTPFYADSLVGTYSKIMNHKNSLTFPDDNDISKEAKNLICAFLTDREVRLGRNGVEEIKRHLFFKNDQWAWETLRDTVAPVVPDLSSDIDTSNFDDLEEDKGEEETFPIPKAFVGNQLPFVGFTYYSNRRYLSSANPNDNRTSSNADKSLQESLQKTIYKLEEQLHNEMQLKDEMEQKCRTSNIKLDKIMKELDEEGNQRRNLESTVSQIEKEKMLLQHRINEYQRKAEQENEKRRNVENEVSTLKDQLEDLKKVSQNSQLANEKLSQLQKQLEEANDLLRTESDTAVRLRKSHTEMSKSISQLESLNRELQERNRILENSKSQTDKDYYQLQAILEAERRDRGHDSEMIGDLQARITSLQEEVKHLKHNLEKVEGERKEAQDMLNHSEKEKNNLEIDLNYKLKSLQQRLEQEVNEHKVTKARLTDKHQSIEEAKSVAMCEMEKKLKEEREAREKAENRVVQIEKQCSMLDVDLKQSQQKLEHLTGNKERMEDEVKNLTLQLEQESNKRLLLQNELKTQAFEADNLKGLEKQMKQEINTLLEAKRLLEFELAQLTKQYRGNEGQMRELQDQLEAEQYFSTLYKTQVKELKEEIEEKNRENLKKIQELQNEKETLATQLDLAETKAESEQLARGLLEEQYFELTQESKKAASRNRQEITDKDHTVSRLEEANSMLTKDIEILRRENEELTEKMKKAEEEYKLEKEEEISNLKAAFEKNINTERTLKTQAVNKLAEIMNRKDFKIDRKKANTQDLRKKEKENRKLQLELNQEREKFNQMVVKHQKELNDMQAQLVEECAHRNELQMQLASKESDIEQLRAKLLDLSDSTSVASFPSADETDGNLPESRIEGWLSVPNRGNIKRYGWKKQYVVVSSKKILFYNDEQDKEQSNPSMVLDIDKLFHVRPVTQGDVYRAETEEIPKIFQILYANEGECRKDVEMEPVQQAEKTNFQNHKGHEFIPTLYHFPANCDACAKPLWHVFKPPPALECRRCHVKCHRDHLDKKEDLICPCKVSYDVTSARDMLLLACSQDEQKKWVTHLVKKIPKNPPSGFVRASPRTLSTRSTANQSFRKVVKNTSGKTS

[3] = target: T1, 3-phosphoinositide-dependent protein kinase 1; assay: Inhibition of PDK1-mediated AKT phosphorylation at Thr308 residue in human PC3 cells by ELISA; format: cell-based, PC-3
[4] = target: T1, 3-phosphoinositide-dependent protein kinase 1; assay: Inhibition of PDK1-mediated RSK phosphorylation at Ser221 residue in human PC3 cells by ELISA; format: cell-based, PC-3
K562 = assay: Antiproliferative activity against human K562 cells; format: functional, cell-based
OCI-AML2 = assay: Antiproliferative activity against human OCI-AML2 cells; format: functional, cell-based
[5] = Antiproliferative activity against human OCI-AML3 cells; format: functional, cell-based; details: OCI-AML-3
HEL = assay: Antiproliferative activity against human HEL 92.1.7 cells; format: functional, cell-based
[6] = Antiproliferative activity against human F-36P cells; format: functional, cell-based

Row | pIC50 [1] | pIC50 (Aurora kinase A) | pIC50 (Aurora kinase B) | IC50 (TGF-beta receptor type-1) [nM] | pIC50 [2] | pIC50 [3] | pIC50 [4] | pIC50 (K562) | pIC50 (OCI-AML2) | SMILES | pIC50 [5] | pIC50 (HEL) | pIC50 [6]
1 | 9.10 | 6.90 | 6.60 | > 10000 | < 5.00 | 8.05 | 7.72 | 4.77 | 6.42 | C[C@@H]1C[C@@H](N(C)C(=O)OC(C)(C)C)CN(c2cc(-c3ccc4c(N)n[nH]c4c3)nc(N)n2)C1 | 6.62 | 4.74 | 6.72
2 | – | 6.40 | 5.80 | > 10000 | < 5.00 | – | – | 4.62 | 6.16 | C[C@@H]1C[C@@H](NC(=O)OC(C)(C)C)CN(c2cc(-c3ccc4c(N)[nH]nc4c3)nc(N)n2)C1 | 6.40 | 4.74 | 6.09
